Measurements taken from patent US5430058A, “Pharmaceutical compositions comprising hydroxamate derivatives for iron removal” (Yeda Research and Development Co. Ltd., priority 1993, dated 1995).
In brackets after ≈: the same amount, converted by molar mass. Read-outs that look alike come from different tables or passages of the source.

Tests used:
[1] = Relative iron(III) binding efficiency by competition with EDTA; type: physicochemical; conditions: for Relative binding: Table 1, DFO = 100, competition with EDTA in aqueous MeOH; for rel. Fe binding (b): Table 2, relative to DFO = 1.16, 0.75 mM hydroxamate, 0.15 mM EDTA, 0.15 mM Fe3+ in aqueous methanol; for Pcoeff*Fe binding (a*b): product of relative partition coefficient and relative iron(III) binding
Method: c. The relative binding efficiencies of the reversed siderophores (0.75 mM reversed siderophore and 0.15 mM Fe^3+ in aqueous MeOH (MeOH-0.1N NaOAc) were incubated with EDTA (0.15 mM). After equilibration overnight, the fraction of siderophore- Fe^3+ complex present was determined at 430 nm.
The values for Pcoeff of free RSF ileun2 (the same as SF1ileu) and of leun2 and their respective iron(III) complexes were similar (not shown).

[2] = tested on: Plasmodium falciparum strain D6; assay: Antimalarial activity in various strains, D6; type: cell-based
Method: (§1) f. Parasite cultures. The P. falciparum strains used in the experiments: ItG2G1 (Brazil, provided by Dr. L. H. Miller), D6 (W. African, provided by Dr. A. J. M. Oduola) FCR-3 (Gambian, provided by Dr. J. B. Jensen) and W2 (Indochina, provided by Dr. A. J. M. Oduola), were grown in culture flasks of human erythrocytes by a modified version of Trager and Jensen's method as described by Silfen et al. ((1988) Biochem. Pharmacol. 37: 4269-4276)).
(§2) g. Bioassay of iron carrier antimalarial activity. […] After the indicated time of incubation with drug and either previous to or after washing 3 times with 100 volumes growth medium, the cells were supplemented with 6 μCi of either [^3 H]-hypoxanthine or [^3 H]-Ileu (Amersham, England) per well and parasite growth assessed after 24-48 hours by harvesting the labelled cells onto glass-fiber filters (Tamar, Inc. Jerusalem) and counting of the radioactivity.
(§3) It is clear that the efficacy of the agents is primarily correlated with the respective octanol/saline partition coefficient or the hydrophobicity of the amino acid side chain, and only secondarily with their iron binding efficiencies, which are relatively high for all the agents. […] The antimalarial activity of the various chelators was assessed over a 24 hr period of exposure on infected cells (trophozoite stage of P. falciparum) as described in method (g). […]

[3] = tested on: Plasmodium falciparum strain ItG2G1; assay: Antimalarial activity in various strains, ItG2G1; type: cell-based
Method: as §1, §2, §3

[4] = tested on: mouse NIH 3T3 fibroblasts; assay: Proliferation of mammalian cells, NIH 3T3; type: cell-based; conditions: for Proliferation (nucleic acid synthesis): 24 hours exposure, [3H]-hypoxanthine; for Proliferation (protein synthesis): [3H]ileu incorporation, not shown
Method: (§4) The possibility that the reversed siderophores might affect mammalian cells in culture was assessed in conditions identical to those used for parasites in cultures. […] Nucleic acid synthesis was measured in cultures of mouse NIH 3T3 fibroblasts and human HT29 colonic carcinoma cells in the presence of either SF1-ileu (open circles), desferrioxamine (DFO) (solid triangle) in DMSO or DMSO alone (Control) (<1% final) (open triangles) at same concentrations. Cultures at confluence were exposed to chelators for 24 hours; the first 3 hours without radiolabel and 21 hours with 6 μCi/ml of [^3 H]-hypoxanthine. Extracellular hypoxanthine was removed by several washes with PBS and the cells were treated with 5% TCA for 15 minutes at 5° C. and solubilized with hot 2.5% SDS. Samples were taken for counting of radioactivity and measurement of protein (BCA, Pierce). Data are given as dpm/μg protein and SD (duplicate samples).

[5] = tested on: human HT29 colonic carcinoma cells; assay: Proliferation of mammalian cells, HT29; type: cell-based; conditions: for Proliferation (nucleic acid synthesis): 24 hours exposure, [3H]-hypoxanthine; for Proliferation (protein synthesis): [3H]ileu incorporation, not shown
Method: as §4

[6] = tested on: human Hep2 hepatoma cells; assay: Iron extraction from hepatoma cells (NBD-DFO fluorescence); type: cell-based; conditions: cells pre-exposed to chelator (80 μg/ml, 18 hour)
ferritin = assay: Effect on iron in ferritin; parameters: species or system horse; conditions: after the same time of exposure
Method: Experimental testing of iron(III)-chelation properties RSF's were performed on human red blood cell lysates (normal and malaria parasitized), intact cells (4 hrs incubation times at 37° C.), free horse spleen ferritin (4-10 hrs at 37° C.) and ferritin-containing HEP-2 (human hepatoma) cells (4-10 hrs at 37° C.) using RSF1-ileu.

red cells = assay: Penetration of chelator into red cells; type: cell-based, human
[7] = tested on: trophozoite cultures of P. falciparum; assay: Neutralization of drug induced inhibition by addition of iron(III); type: cell-based, Plasmodium falciparum; conditions: stoichiometric addition of iron(III) salt / applied as iron(III)-complexes
Method: i. Neutralization of drug induced inhibition by addition of iron (III). Preformed ferric iron-carrier complexes were prepared by addition of increasing amounts of FeCl3 (in methanol) to a DMSO solution containing the indicated concentration of chelator. The mixtures were incubated for 1 hour at room temperature and added to microculture wells at the trophozoite stage at final concentrations of 30 μg/ml (for desferrioxamine) and 5 μg/ml (for reversed siderophores).
In order to assess this point, it was examined whether the reversed siderophores cause growth inhibition by virtue of iron deprivation (extraction at the level of the infected cell), as compared to formation of toxic iron complexes, the effect of chelator on trophozoite cultures was examined in the presence of increasing amounts of ferric salt. […] The concentration of drug used was the IC50 value depicted in Table 1. […] The complexes were evidently non-toxic to parasites, thus ruling out chelated iron-mediated lipid peroxidation as the modus of operandii of the drugs, a mechanism of antimalarial activity that has been proposed for other iron chelators. […]

| SMILES | Relative binding [1] | rel. Fe binding (b) [1] | Pcoeff*Fe binding (a*b) [1] | IC50 ([2]; D6, 48 h) [µg/mL] | IC50 ([3]; 48 h) [µg/mL] | Proliferation (nucleic acid synthesis) [4] | Proliferation (protein synthesis) [4] | Proliferation (nucleic acid synthesis) [5] | Proliferation (protein synthesis) [5] | Chelatable cytosolic iron [6] | Effect on iron in ferritin (ferritin) | Penetration into red cells (red cells) | IC50 ([2]; strain D6 (chloroquine-sensitive), 48 hour exposure, trophozoites, read-out: IC50) [µg/mL] | IC50 ([3]; strain ItG2G1 (chloroquine-sensitive), 48 hour exposure, trophozoites, read-out: IC50) [µg/mL] | Effect of iron(III) on antimalarial activity [7] |
| --- | --- | --- | --- | --- | --- | --- | --- | --- | --- | --- | --- | --- | --- | --- | --- |
| CC[C@H](C)[C@H](NC(=O)CCOCC(CC)(COCCC(=O)N[C@H](C(=O)N(C)O)[C@@H](C)CC)COCCC(=O)N[C@H](C(=O)N(C)O)[C@@H](C)CC)C(=O)N(C)O [SF1-ileu] | 25 | 0.29 | 2.4 | 6 ± 2 (≈ 7.72 µM) | 5 ± 2 (≈ 6.44 µM) | neither SF1-ileu nor DFO affected the proliferation | neither SF1-ileu nor DFO affected the proliferation | neither SF1-ileu nor DFO affected the proliferation | neither SF1-ileu nor DFO affected the proliferation | demonstrably reduced | not substantially affecting iron in ferritin | can easily penetrate into red cells | – | – | – |
| CC(=O)N(O)CCCCCNC(=O)CCC(=O)N(O)CCCCCNC(=O)CCC(=O)N(O)CCCCCN [DFO, desferrioxamine B, reference compound] | 100 | 1.16 | 0.065 | – | – | neither SF1-ileu nor DFO affected the proliferation | neither SF1-ileu nor DFO affected the proliferation | neither SF1-ileu nor DFO affected the proliferation | neither SF1-ileu nor DFO affected the proliferation | – | – | – | 40 ± 9 (≈ 71.3 µM) | 35 ± 3 (≈ 62.4 µM) | fully averted their antimalarial activity |
